Tests used:
[1] = tested on: HCC1806 cells; experiment: Fluorescence redox ratio imaging; format: cell-based, human; settings: 10 μM, 48 h
Method: HCC1806 cells were plated on 35-mm glass-bottom petri dishes for imaging (MatTek Corp). Fluorescence intensity and lifetime images were acquired using a custom-built multiphoton fluorescence lifetime system (Bruker), with a 40× oil-immersion objective (1.3 NA) and an inverted microscope (TiE, Nikon). A titanium:sapphire laser (Chameleon Ultra II, Coherent) was tuned to 750 nm for two-photon excitation of NAD(P)H and tuned to 890 nm for two-photon excitation of FAD. A 440/80 nm bandpass filter was used to collect NAD(P)H fluorescence emission, and a 550/100 nm was used to collect FAD emission. […] A GaAsP PMT (H7422P-40, Hamamatsu) detected emitted photons. […] Time-correlated single photon counting electronics (SPC-150, Becker and Hickl) were used to acquire fluorescence decay curves. […] Fluorescence lifetime validation was performed by imaging a fluorescent bead (Polysciences Inc) and confirming that the measured lifetime (2.1 ns) agreed with previously published values^22. […]
An automated cell segmentation routine was written using CellProfiler to identify individual cell cytoplasms and extract average fluorescence intensity and fluorescence lifetime values for each cell in the field of view. Intensity values for each pixel were calculated by integrating the decay curve for each pixel. […]

[2] = tested on: HCC1806 xenografts; experiment: HCC1806 xenograft 10-day exposure study; format: in vivo, mouse; settings: 75 mg/kg per day, 10 days
Method: Tissues were sectioned (5 μm thickness) and stained for pS6 (Cell Signaling, #4858) and caspase 3 (Cell Signaling #9661). Tissue slides were imaged at 20× magnification.
For in vivo studies, cell-line xenograft tumors were propagated in 6-week old, female athymic nude mice from immortalized cell lines. For HCC-1806 (10×10^6 cells), HCT-116 (5×10^6), and HT29 (10×10^6) cells were injected. Palpable tumors were typically visible within 2-3 weeks. For imaging studies (HCC-1806), tumors were propagated to approximately 500 mm^3. For treatment studies (HCT-116, HT29) tumors were propagated to approximately 200 mm^3 prior to therapy and were randomly assigned into treated and untreated cohorts. For generating the PDX, primary tumor tissue was obtained form a patient at Vanderbilt University Medical Center under an IRB approved protocol. The tumor tissue was genotyped within the VANTAGE core facility. Xenograft was generated as previously described 41. Briefly, tumor tissues were sectioned into approximately 125 cubic millimeter pieces then implanted subcutaneously without further manipulation. […] Tumor volumes were measured manually using calipers every third day and quantified using the formula V=W·L·(H/2).

[3] = tested on: HCC1806 and HT29 cells; experiment: Autophagic flux (CYTO-ID); format: cell-based, human
Method: Autophagic flux was measure using the CYTO-ID autophagy detection kit (Enzo Life Sciences ENZ-51031). HCC1806 and HT29 cells were seeded in 96 well plates the day before the experiment. […] Following treatment, cells were gently washed with assay buffer followed by addition of the dual color detection solution and incubation at 37° C. for 30 min. The plate was analyzed on a fluorescence microplane reader (BioTek Synergy 4).

[4] = tested on: human CRC organoids A-007 and A-008; experiment: Human CRC organoid viability assay; format: cell-based; settings: V-9302 25 μM or CB-839 35 μM, 96 h
Method: Human CRC-derived organoids were prepared as reported method with modification^41. Briefly, specimens from freshly resected tumors were minced and digested with 2 mg/ml type 2 collagenase (Worthington, N.J., USA). Samples were passed through 40 µm filters (Greiner Bio One, NC, USA) and epithelial cells trapped on the filters were embed in Matrigel (Corning, MA, USA) and cultured with advanced DMEM/F12 supplemented with N2 and B27 supplements (Thermo Fischer, MA, USA), 50 ng/ml rhEGF (R&D systems, MN, USA) and 1% antibiotic-antimycotic (Corning). For viability assay, organoids were dissociated by TrypLE express (Thermo Fischer) and suspended in Matrigel. […] After 4 days of culture, images of the organoids in Matrigel were captured and the number of viable cells were quantified with CellTiter Aqueous One Cell Proliferation Assay kit (Promega, WI, USA) and a Synergy 4 plate reader (BioTek, VT, USA). The assay was replicated at least three times, technically and biologically. Significance was calculated using a t-test in Graphpad Prism. Error is reported as standard deviation (SD).

[5] = tested on: HT29 cells; experiment: Glutathione and reactive oxygen species in HT29 cells; format: cell-based, human; settings: 48 h
Method: Glutathione levels were measured using a commercially available kit (Cayman Chemical 703002) according to the manufacturers protocol. Concurrently ROS was measured in cells using CM-H2DCFDA (Life Technologies C6827) coupled with flow cytometry in accordance with the manufacturers protocol. The assay was replicated replicated at least three times, technically and biologically. Significance was calculated using a t-test in Graphpad Prism. Error is reported as standard deviation (SD).

Cc1cccc(COc2ccccc2CN(CCC(N)C(=O)O)Cc2ccccc2OCc2cccc(C)c2)c1 (stereo not shown) [Compound V-9302]
fluorescent lifetimes of NAD(P)H and FAD [1]: decreased the fluorescent lifetimes of both NAD(P)H and FAD | tumor growth [2]: tumor growth arrest | tumor response markers [2]: elevated LC3B and cleaved caspase 3, along with decreased pAKT (Ser473) and pS6 | number of autophagic vesicles ([3]; HT29 cells, combined with chloroquine (10 μM)): further increased the number of autophagic vesicles | autophagic flux ([3]; single agent): elevated with V-9302 exposure in a concentration-dependent manner | organoid viability [4]: significantly reduced | GSSG levels and ROS [5]: elevated GSSG levels and ROS

— patent US10793514B2, “Glutamine transport inhibitors and methods for treating cancer” (Vanderbilt University, priority 2016, dated 2020)
